According to publication PMC6115637 (Chemical Science, 2018):
Positions count from the first letter of the chain named.

Assays:
Format in all cases: cell-based
M4 receptor I81A = target: T1, M4 receptor I81A (Homo sapiens, UniProt P08173, I81A); experiment: Split luciferase biosensor cAMP assay for Gi activation, M4 mutant I81A; settings: M4 mutant I81A vs WT
T1 sequence (P08173 1-479 I81A): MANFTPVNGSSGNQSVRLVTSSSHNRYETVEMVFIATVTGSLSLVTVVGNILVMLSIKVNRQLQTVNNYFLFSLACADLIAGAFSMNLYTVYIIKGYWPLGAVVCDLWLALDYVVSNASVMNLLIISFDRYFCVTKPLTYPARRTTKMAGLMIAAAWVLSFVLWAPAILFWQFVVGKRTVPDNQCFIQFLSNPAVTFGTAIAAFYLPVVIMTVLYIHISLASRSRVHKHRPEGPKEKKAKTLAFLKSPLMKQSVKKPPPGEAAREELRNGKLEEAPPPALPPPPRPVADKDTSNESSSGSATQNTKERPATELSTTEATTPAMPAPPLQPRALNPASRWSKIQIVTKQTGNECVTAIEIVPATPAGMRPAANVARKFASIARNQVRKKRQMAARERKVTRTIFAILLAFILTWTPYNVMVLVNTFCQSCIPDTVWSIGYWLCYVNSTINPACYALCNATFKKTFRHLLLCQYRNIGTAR

M4 receptor S116A = target: T2, M4 receptor S116A (Homo sapiens, UniProt P08173, S116A); experiment: Split luciferase biosensor cAMP assay for Gi activation, M4 mutant S116A; settings: M4 mutant S116A vs WT
T2 sequence (P08173 1-479 S116A): T1 sequence (P08173 1-479 I81A) with A81I, S116A

M4 receptor S119A = target: T3, M4 receptor S119A (Homo sapiens, UniProt P08173, S119A); experiment: Split luciferase biosensor cAMP assay for Gi activation, M4 mutant S119A; settings: M4 mutant S119A vs WT
T3 sequence (P08173 1-479 S119A): T1 sequence (P08173 1-479 I81A) with A81I, S119A

M4 receptor V120A = target: T4, M4 receptor V120A (Homo sapiens, UniProt P08173, V120A); experiment: Split luciferase biosensor cAMP assay for Gi activation, M4 mutant V120A; settings: M4 mutant V120A vs WT
T4 sequence (P08173 1-479 V120A): T1 sequence (P08173 1-479 I81A) with A81I, V120A

M4 receptor F409A = target: T5, M4 receptor F409A (Homo sapiens, UniProt P08173, F409A); experiment: Split luciferase biosensor cAMP assay for Gi activation, M4 mutant F409A; settings: M4 mutant F409A vs WT
T5 sequence (P08173 1-479 F409A): T1 sequence (P08173 1-479 I81A) with A81I, F409A

M4 receptor W413A = target: T6, M4 receptor W413A (Homo sapiens, UniProt P08173, W413A); experiment: Split luciferase biosensor cAMP assay for Gi activation, M4 mutant W413A
T6 sequence (P08173 1-479 W413A): T1 sequence (P08173 1-479 I81A) with A81I, W413A

M4 receptor N445A = target: T7, M4 receptor N445A (Homo sapiens, UniProt P08173, N445A); experiment: Split luciferase biosensor cAMP assay for Gi activation, M4 mutant N445A; settings: M4 mutant N445A vs WT
T7 sequence (P08173 1-479 N445A): T1 sequence (P08173 1-479 I81A) with A81I, N445A

activity decrease compared to WT M4 receptor (M4 receptor I81A): 100 times | activity decrease compared to WT M4 receptor (M4 receptor S116A): 100 times | decreased activity compared to WT M4 receptor (M4 receptor S119A): 4–14 fold | change of EC50 compared to WT M4 receptor (printed: increased the EC50) (M4 receptor V120A): 16 fold | decreased activity compared to WT M4 receptor (M4 receptor F409A): 4–14 fold | activity of M4 mutant towards ACh (M4 receptor W413A): completely inactive | decreased activity compared to WT M4 receptor (M4 receptor N445A): 4–14 fold
Structure (SMILES): CC(=O)OCC[N+](C)(C)C [ACh, acetylcholine]
